{
  "source": "patent US20250222120A1",
  "about": "“SYNTHESIS OF NOVEL SMALL MOLECULE CARM1 DEGRADERS, COMPOUNDS FORMED THEREBY, AND PHARMACEUTICAL COMPOSITIONS CONTAINING THEM” (Wisconsin Alumni Research Foundation, priority 2024, published 2025)",
  "key": {"[1]": {"system": "MCF7 cells", "assay": "Global quantitative proteomic analysis of MCF7 cells by mass spectrometry", "type": "cell-based, Homo sapiens", "settings": "25 nM, 4 h, two-fold cutoff, p-value ≤0.05, 3491 proteins quantified", "procedure": "(§1) Sample preparation for global proteomics analysis. Sample preparation is similar to the previous report (Ma et al. “Strategy Based on Deglycosylation, Multiprotease, and Hydrophilic Interaction Chromatography for Large-Scale Profiling of Protein Methylation” Anal. Chem. 2017, 89 (23), 12909-12917). Briefly, treated MCF7 cells were harvested by washing with PBS buffer (Gibco, pH 7.4) and lysed in RIPA buffer supplemented with protease inhibitors for 20 min, then protein concentration was determined using a BCA Protein Assay Kit (Thermo Pierce, Rockford, IL) per manufacturer instructions. […] The concentrations of the peptide mixture were measured by peptide assay (Thermo Fisher Scientific). […]\n(§2) LC-MS/MS data acquisition. Samples were analyzed on an Orbitrap Fusion Lumos Tribrid mass spectrometer (Thermo Fisher Scientific) coupled to a Dionex UltiMate 3000 UPLC system. […]\n(§3) Data analysis. Protein identification and quantification by MaxQuant (version 1.5.3.8) based database searching, using the integrated Andromeda search engine with FDR <1% at peptide and protein levels. […] For label-free protein quantification (LFQ), the MaxQuant LFQ algorithm was used to quantitate the MS signals, and the proteins' intensities were represented in LFQintesnit (Schaab et al. “Analysis of High Accuracy, Quantitative Proteomics Data in the MaxQB Database” Mol. Cell. Proteomics 2012, 11 (3), M111.014068). […]"}, "[2]": {"target": "T1, PRMT1 (Homo sapiens, UniProt Q99873)", "T1 construct": "we performed a global quantitative proteomic analysis of MCF7 cells using mass spectrometry; endogenous in cells; host or cells: MCF7", "T1 sequence (Q99873 whole entry)": "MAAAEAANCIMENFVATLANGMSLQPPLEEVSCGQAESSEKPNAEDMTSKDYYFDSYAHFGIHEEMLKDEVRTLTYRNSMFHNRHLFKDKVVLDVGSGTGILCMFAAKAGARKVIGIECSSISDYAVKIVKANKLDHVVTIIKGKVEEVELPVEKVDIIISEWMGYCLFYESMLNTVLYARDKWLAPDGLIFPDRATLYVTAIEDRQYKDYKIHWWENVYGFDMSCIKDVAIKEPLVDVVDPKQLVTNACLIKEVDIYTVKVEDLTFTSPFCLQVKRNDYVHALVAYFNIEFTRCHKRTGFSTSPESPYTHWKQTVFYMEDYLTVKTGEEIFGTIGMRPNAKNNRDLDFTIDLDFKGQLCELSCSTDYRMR", "assay": "Global proteomics of MCF7 cells, PRMT1 level", "type": "cell-based", "settings": "25 nM, 4 h, versus DMSO", "procedure": "as §1, §2, §3"}, "[3]": {"system": "PABP1 and BAF155 di-methylation by CARM1", "assay": "PABP1 and BAF155 di-methylation (me2a) inhibition in MCF7 cells, western blot", "type": "cell-based, human", "settings": "24 h, 0.1 μM 3b versus 10 μM TP-064", "excerpt": "(See Wang et al. “CARM1 Methylates Chromatin Remodeling Factor BAF155 to Enhance Tumor Progression and Metastasis” Cancer Cell 2014, 25 (1), 21-36; Lee and Bedford. “PABP1 Identified as an Arginine Methyltransferase Substrate Using High-Density Protein Arrays” EMBO Rep. 2002, 3 (3), 268-273.) In fact, asymmetric dimethylation (me2a) of these proteins are routinely investigated for CARM1 inhibitors.\nWestern Blot Assay. Cells were harvested and washed with Dulbecco's phosphate-buffered saline (PBS), then lysed with 1×RIPA lysis buffer (50 mM Tris pH 7.5, 150 mM NaCl, 1% NP-40, 0.5% sodium deoxycholate, and 0.1% sodium dodecyl sulfate) supplemented with 1 mM phenylmethylsulfonyl fluoride, 10 μg/mL aprotinin, 1 μM leupeptin, and 10 μg/mL pepstatin on ice for 20 min. The supernatant was collected after spinning down at 15000 RPM at 4 degrees Celsius for 10 min. The concentration of whole lysates was quantified using a Bradford assay. 50-75 μg of cell lysates was boiled in 4× Laemmli Loading Dye and boiled at 100 degrees Celsius for 10 min. 25 μg were run in 8% SDS-PAGE gels and transferred to nitrocellulose membranes. Blots were blocked in 5% skim milk in PBST [PBS and 0.1% Tween 20] for 45 min, then incubated with primary antibodies at 4 degrees Celsius overnight. […]"}, "[4]": {"system": "MCF7 cells", "assay": "Cell proliferation assay, MCF7 cells", "type": "cell-based, human", "settings": "0.5 μM"}},
  "data": [
    {"smiles": "CNCCN1CCC(c2cc(CN(C)C(=O)c3cccc(Oc4ccc(OCC(=O)N5CCC(CN6CCC(CN7CCN(CC(=O)N[C@H](C(=O)N8C[C@H](O)C[C@H]8C(=O)N[C@@H](C)c8ccc(-c9scnc9C)cc8)C(C)(C)C)CC7)CC6)CC5)cc4)c3)ccn2)CC1", "note": "[Compound 3b, (2S,4R)-1-((S)-3,3-dimethyl-2-(2-(4-((1-((1-(2-(4-(3-(methyl((2-(1-(2-(methylamino)ethyl)piperidin-4-yl)pyridin-4-yl)methyl)carbamoyl)phenoxy)phenoxy)acetyl)piperidin-4-yl)methyl)piperidin-4-yl)methyl)piperazin-1-yl)acetamido)butanoyl)-4-hydroxy-N—((S)-1-(4-(4-methylthiazol-5-yl)phenyl)ethyl)pyrrolidine-2-carboxamide]", "values": [
      {"measurement": "Number of significantly changed proteins compared to the DMSO group", "setting": "[1]", "result": 25},
      {"measurement": "PRMT1 protein level in proteomics", "setting": "[2]", "result": "not significantly changed"},
      {"measurement": "Levels of PABP1 and BAF155 me2a inhibition", "setting": "[3]", "result": "at least as equivalent to that of 10 μM of TP-064"},
      {"measurement": "Cell proliferation", "setting": "[4]", "result": "not to inhibit cell proliferation"}
    ]}
  ]
}
